From patent publication US12637478B2, “Compound, preparation method thereof, and antibiotic composition comprising same” (priority 2020, dated 2026)
≈ marks a conversion by molar mass, not a printed value. Where two headings read alike, the source gives them in different places.

What was measured:
[1] = test system: S. aureus^MS; assay: MIC by broth microdilution (aerobic pathogens), test strain 2; format: cell-based; settings: Staphylococcus aureus
Method: (§1) The antibacterial activity of the compounds of Examples 1 to 48 of the present invention against aerobic pathogens were evaluated by measuring the minimum concentration of the antibiotic capable of inhibiting bacterial growth by 90% compared to the growth of the non-drug treated control group. MIC was measured by the broth microdilution method based on CLSI standards [Reference: Clinical and Laboratory Standards Institute Document. (2000) Methods for Dilution Antimicrobial Susceptibility Test for Bacteria that Grow Aerobically-Fifth Edition: M7-A5. CLSI, Villanova, PA].
(§2) All 13 strains such as methicillin susceptible Staphylococcus aureus (MSSA), methicillin resistant Staphylococcus aureus (MRSA), Vancomycin resistant Staphylococcus aureus (VRSA), Staphylococcus epidermidis, methicillin resistant Staphylococcus epidermidis, Enterococcus faecalis, Vancomycin resistant Enterococcus faecalis, Enterococcus faecium, Vancomycin resistant Enterococcus faecium were used.

[2] = test system: S. aureus^MS; assay: MIC by broth microdilution (aerobic pathogens), test strain 1; format: cell-based; settings: Staphylococcus aureus
Method: as §1, §2

[3] = test system: E. faecalis; assay: MIC by broth microdilution (aerobic pathogens), test strain 7; format: cell-based; settings: Enterococcus faecalis
Method: as §1, §2

[4] = test system: S. epidermis^MR; assay: MIC by broth microdilution (aerobic pathogens), test strain 6; format: cell-based, Methicillin resistant Staphylococcus epidermidis; settings: Staphylococcus epidermidis
Method: as §1, §2

[5] = test system: E. faecalis^VanA; assay: MIC by broth microdilution (aerobic pathogens), test strain 8; format: cell-based, Vancomycin resistant Enterococcus faecalis; settings: Enterococcus faecalis
Method: as §1, §2

[6] = test system: C. difficile 173; assay: MIC by agar dilution against Clostridioides difficile, test strain 17; format: cell-based; settings: test strain 17, C. difficile 173, anaerobic, agar dilution, read-out: MIC
[7] = test system: S. epidermis; assay: MIC by broth microdilution (aerobic pathogens), test strain 5; format: cell-based; settings: Staphylococcus epidermidis
Method: as §1, §2

[8] = test system: C. difficile 174; assay: MIC by agar dilution against Clostridioides difficile, test strain 18; format: cell-based; settings: test strain 18, C. difficile 174, anaerobic, agar dilution, read-out: MIC
[9] = test system: C. difficile 9689; assay: MIC by agar dilution against Clostridioides difficile, test strain 13; format: cell-based; settings: test strain 13, C. difficile 9689, anaerobic, agar dilution, read-out: MIC
[10] = test system: C. difficile 152; assay: MIC by agar dilution against Clostridioides difficile, test strain 14; format: cell-based; settings: test strain 14, C. difficile 152, anaerobic, agar dilution, read-out: MIC
[11] = test system: E. faecalis^LinR; assay: MIC by broth microdilution (aerobic pathogens), test strain 9; format: cell-based, Linezolid resistant Enterococcus faecalis; settings: Enterococcus faecalis
Method: as §1, §2

[12] = test system: E. faecium; assay: MIC by broth microdilution (aerobic pathogens), test strain 10; format: cell-based; settings: Enterococcus faecium
Method: as §1, §2

[13] = test system: C. difficile 181; assay: MIC by agar dilution against Clostridioides difficile, test strain 19; format: cell-based; settings: test strain 19, C. difficile 181, anaerobic, agar dilution, read-out: MIC
[14] = test system: C. difficile 161; assay: MIC by agar dilution against Clostridioides difficile, test strain 16; format: cell-based; settings: test strain 16, C. difficile 161, anaerobic, agar dilution, read-out: MIC
[15] = test system: M. avium; assay: MIC by resazurin (REMA) assay against Mycobacterium, test strain 21; format: cell-based
Method: (§3) In order to test the antibacterial activity, the medium of Mycobacterium cultured to late log phase was diluted so as to be 4.0×10^5 cells/well in Middlebrook 7H10 agar medium (Difco) supplemented with 10% oleic acid, albumin, dextrose, catalase (OADC, Becton Dickinson) and 0.05% Tween 80 (Sigma Aldrich) and was dispensed into a 96-well plate. The compounds were treated so that DMSO was 1%, and after 3 days, a 0.025% resazurin (REMA) solution was dispensed, and the growth of the bacteria was confirmed after culturing. The MIC value was measured for the antibacterial activity through resazurin (excitation 530 nm, emission 590 nm).

[16] = test system: M. intracelluare; assay: MIC by resazurin (REMA) assay against Mycobacterium, test strain 22; format: cell-based; settings: Mycobacterium intracellulare; test strain 22, M. intracelluare, resazurin; read-out: MIC
Method: as §3

[17] = test system: M. abscessus; assay: MIC by resazurin (REMA) assay against Mycobacterium, test strain 23; format: cell-based; settings: Mycobacteroides abscessus; test strain 23, M. abscessus, resazurin; read-out: MIC
Method: as §3

[18] = test system: E. faecium^VRE; assay: MIC by broth microdilution (aerobic pathogens), test strain 11; format: cell-based, Vancomycin resistant Enterococcus faecium; settings: Enterococcus faecium, VRE
Method: as §1, §2

[19] = test system: S. aureus^MR; assay: MIC by broth microdilution (aerobic pathogens), test strain 3; format: cell-based, Methicillin resistant Staphylococcus aureus; settings: Staphylococcus aureus
Method: as §1, §2

[20] = test system: S. aureus^VR; assay: MIC by broth microdilution (aerobic pathogens), test strain 4; format: cell-based, Vancomycin resistant Staphylococcus aureus; settings: Staphylococcus aureus
Method: as §1, §2

[21] = test system: C. difficile 159; assay: MIC by agar dilution against Clostridioides difficile, test strain 15; format: cell-based; settings: test strain 15, C. difficile 159, anaerobic, agar dilution, read-out: MIC
[22] = test system: E. faecium^LinR; assay: MIC by broth microdilution (aerobic pathogens), test strain 12; format: cell-based, Linezolid resistant Enterococcus faecium; settings: Enterococcus faecium
Method: as §1, §2

[23] = test strain 2, S. aureus^MS, read-out: MIC
[24] = test strain 1, S. aureus^MS, read-out: MIC
[25] = test strain 9, E. faecalis^LinR (linezolid resistant), read-out: MIC
[26] = test strain 21, M. avium, resazurin, read-out: MIC

Compound | MIC [1, 23] | MIC [2, 24] | MIC [6] | MIC [8] | MIC [9] | MIC [10] | MIC [11, 25] | MIC [13] | MIC [14] | MIC [15, 26] | MIC [16] | MIC [17] | MIC [1] | MIC [18] | MIC [2] | MIC [3] | MIC [4] | MIC [7] | MIC [11] | MIC [12] | other results
C/C=C1\NC(=O)[C@H]([C@@H](C)O)NC(=O)c2csc(n2)-c2ccc(-c3nc(-c4nc(C(=O)NC5(C(=O)NCCCN6CCN(C(C)C)CC6)CC5)cs4)cs3)nc2-c2csc(n2)[C@H]([C@@H](C)O)NC(=O)c2csc(n2)[C@H](C(C)C)NC(=O)c2csc1n2 [Compound 12] | 1 µg/mL (≈ 0.797 µM) | 1 µg/mL (≈ 0.797 µM) | 1 µg/mL (≈ 0.797 µM) | 0.125 µg/mL (≈ 0.0996 µM) | 0.5 µg/mL (≈ 0.399 µM) | 1 µg/mL (≈ 0.797 µM) | 1 µg/mL (≈ 0.797 µM) | 0.125 µg/mL (≈ 0.0996 µM) | 0.5 µg/mL (≈ 0.399 µM) | 0.135 µg/mL (≈ 0.108 µM) |  |  |  |  |  |  |  |  |  |  | MIC ([3]; test strain 7, E. faecalis, read-out: MIC): 1 µg/mL (≈ 0.797 µM); MIC ([4]; test strain 6, S. epidermis^MR (methicillin resistant), read-out: MIC): 1 µg/mL (≈ 0.797 µM); MIC ([5]; test strain 8, E. faecalis^VanA (vancomycin resistant), read-out: MIC): 1 µg/mL (≈ 0.797 µM); MIC ([7]; test strain 5, S. epidermis, read-out: MIC): 0.5 µg/mL (≈ 0.399 µM); MIC ([12]; test strain 10, E. faecium, read-out: MIC): 1 µg/mL (≈ 0.797 µM)
C/C=C1\NC(=O)[C@H]([C@@H](C)O)NC(=O)c2csc(n2)-c2ccc(-c3nc(-c4nc(C(=O)NC5(C(=O)NCCN6CCN(C[C@@H](O)CO)CC6)CC5)cs4)cs3)nc2-c2csc(n2)[C@H]([C@@H](C)O)NC(=O)c2csc(n2)[C@H](C(C)C)NC(=O)c2csc1n2 [Compound 28] | 0.5 µg/mL (≈ 0.393 µM) | 0.25 µg/mL (≈ 0.196 µM) |  |  |  |  | 0.5 µg/mL (≈ 0.393 µM) |  |  | 0.13 µg/mL (≈ 0.102 µM) | 0.115 µg/mL (≈ 0.0904 µM) | 0.49 µg/mL (≈ 0.385 µM) |  |  |  |  |  |  |  |  | 
CN[C@H](CC(C)C)C(=O)N[C@H]1C(=O)N[C@@H](CC(N)=O)C(=O)N[C@H]2C(=O)N[C@H]3C(=O)N[C@H](C(=O)N[C@H](C(=O)O)c4cc(O)cc(O)c4-c4cc3ccc4O)[C@H](O)c3ccc(c(Cl)c3)Oc3cc2cc(c3O[C@@H]2O[C@H](CO)[C@@H](O)[C@H](O)[C@H]2O[C@H]2C[C@](C)(N)[C@H](O)[C@H](C)O2)Oc2ccc(cc2Cl)[C@H]1O [Van, Vancomycin, reference compound] |  |  | 0.5 µg/mL (≈ 0.345 µM) | 0.5 µg/mL (≈ 0.345 µM) | 2 µg/mL (≈ 1.38 µM) | 1 µg/mL (≈ 0.69 µM) |  | 0.5 µg/mL (≈ 0.345 µM) | 1 µg/mL (≈ 0.69 µM) |  |  |  | 0.25 µg/mL (≈ 0.173 µM) | > 128 µg/mL | 0.5 µg/mL (≈ 0.345 µM) | 1 µg/mL (≈ 0.69 µM) | 0.5 µg/mL (≈ 0.345 µM) | 1 µg/mL (≈ 0.69 µM) | 1 µg/mL (≈ 0.69 µM) | 0.5 µg/mL (≈ 0.345 µM) | MIC [5]: > 128 µg/mL; MIC [19]: 0.5 µg/mL (≈ 0.345 µM); MIC [20]: > 128 µg/mL; MIC [21]: 2 µg/mL (≈ 1.38 µM); MIC [22]: 0.5 µg/mL (≈ 0.345 µM)
C/C=C1\NC(=O)[C@H]([C@@H](C)O)NC(=O)c2csc(n2)-c2ccc(-c3nc(-c4nc(C(=O)NC5(C(=O)NCCCN6C(=O)NC(C)C6=O)CC5)cs4)cs3)nc2-c2csc(n2)[C@H]([C@@H](C)O)NC(=O)c2csc(n2)[C@H](C(C)C)NC(=O)c2csc1n2 (stereo partly drawn) [Compound 37] |  |  |  |  |  |  |  |  |  |  |  |  | 0.25 µg/mL (≈ 0.202 µM) | 1 µg/mL (≈ 0.806 µM) | 0.25 µg/mL (≈ 0.202 µM) | 0.5 µg/mL (≈ 0.403 µM) | 0.25 µg/mL (≈ 0.202 µM) | 0.25 µg/mL (≈ 0.202 µM) | 1 µg/mL (≈ 0.806 µM) | 0.5 µg/mL (≈ 0.403 µM) | MIC [15]: 0.082 µg/mL (≈ 0.0661 µM)
C/C=C1\NC(=O)[C@H]([C@@H](C)O)NC(=O)c2csc(n2)-c2ccc(-c3nc(-c4nc(C(=O)NC5(C(=O)NCCN6CCN(CCO)CC6)CC5)cs4)cs3)nc2-c2csc(n2)[C@H]([C@@H](C)O)NC(=O)c2csc(n2)[C@H](C(C)C)NC(=O)c2csc1n2 [Compound 32] | 0.5 µg/mL (≈ 0.402 µM) | 0.5 µg/mL (≈ 0.402 µM) |  |  |  |  |  |  |  | 0.153 µg/mL (≈ 0.123 µM) | 0.116 µg/mL (≈ 0.0934 µM) | 0.153 µg/mL (≈ 0.123 µM) |  |  |  |  |  |  |  |  | 
